This note sets out measurements from ChEMBL document CHEMBL1201862, “PubChem BioAssay data set” (2004).

Test systems include HCC 2998; HCT-116; HL-60; HOP-92; LOX IMVI; M14; MDA-MB-231; Malme-3M; NCI-H226; NCI-H23; OVCAR-4; OVCAR-5; SF-268; SK-MEL-5; SNB-19; SW-620; U-251; UACC-257.
Holding throughout (assay): inhibition of tumour cell growth, NCI panel, 48 h

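Step 1: Grow cells in 96-well plates. Step 2: Expose to compound for 48 hours at 5 concentrations. Step 3: Interpolate endpoints linearly; if unreached, use highest concentration. GI50 is the concentration that inhibits growth by half.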 The source made the active and inactive calls. No stated cut-off is given here; in the data, active = GI50 up to about 1.1 µM and inactive = higher.

Regarding `NC(C(=O)O)c1cc(O)no1` (stereo unspecified), the GI50 is > 100 µM (inactive) in the experiment with HCC 2998; > 100 µM (inactive) with HCT-116; > 60 µM (inactive) in the experiment on HL-60; > 100 µM (inactive) in the experiment with HOP-92; > 100 µM (inactive) with LOX IMVI; > 100 µM (inactive) in the experiment with M14. Besides, the GI50 in the experiment with MDA-MB-231, in the experiment on Malme-3M, with NCI-H226, in the experiment on NCI-H23, in the experiment on OVCAR-4 and with OVCAR-5 was > 100 µM (inactive) throughout. The GI50 in the experiment with SF-268, in the experiment on SK-MEL-5, in the experiment on SNB-19, in the experiment with SW-620, in the experiment on U-251 and in the experiment on UACC-257 was > 100 µM (inactive) throughout.

On to `CC(C)NC(=O)CN1CCN(C2=CC(=O)c3c(O)ccc(O)c3C2=O)CC1`, for which the GI50 in the experiment on HCC 2998 was 16.7 µM (inactive); in the experiment on HCT-116 it was 2.96 µM (inactive); in the experiment on HL-60, 2.59 µM (inactive); with HOP-92 it was 21.9 µM (inactive); with LOX IMVI it was 6.1 µM (inactive); with M14, 9.33 µM (inactive). Also, the GI50 with MDA-MB-231 was 26.3 µM (inactive); in the experiment with Malme-3M it was 2.22 µM (inactive); in the experiment on NCI-H226, 31.4 µM (inactive); with NCI-H23, 9.4 µM (inactive); with OVCAR-4, 7.45 µM (inactive); with OVCAR-5, 18.7 µM (inactive). Further, the GI50 with SF-268 is 24.3 µM (inactive); in the experiment on SK-MEL-5, 2.58 µM (inactive); in the experiment on SNB-19, 18.7 µM (inactive); in the experiment with SW-620, 4.25 µM (inactive); in the experiment on U-251, 19.9 µM (inactive); in the experiment with UACC-257 it was 7.18 µM (inactive).

`O=C(/C=C/c1ccc(C(F)(F)F)cc1)c1c([O-])on[n+]1-c1ccccc1`: the GI50 with HCC 2998 was 1.98 µM (inactive); with HCT-116 it was 1.75 µM (inactive); in the experiment on HL-60, 0.173 µM (active); in the experiment on HOP-92 it was 1.6 µM (inactive); in the experiment on LOX IMVI, 0.403 µM (active); in the experiment on M14, 2.3 µM (inactive). Also, the GI50 was 4.53 µM (inactive) with MDA-MB-231; > 100 µM (inactive) in the experiment on Malme-3M; 6 µM (inactive) in the experiment with NCI-H226; 3.13 µM (inactive) with NCI-H23; 5.33 µM (inactive) in the experiment on OVCAR-4; 3.12 µM (inactive) in the experiment with OVCAR-5. In addition, the GI50 is 2.8 µM (inactive) in the experiment on SK-MEL-5; 3.12 µM (inactive) in the experiment with SNB-19; 1.37 µM (inactive) in the experiment with SW-620; 1.83 µM (inactive) in the experiment with U-251; 2.12 µM (inactive) in the experiment on UACC-257.

As to `C[N+]12CCCCC1C(CN1C(=O)c3ccccc3C1=O)CCC2` (stereo unspecified), the GI50 with HCC 2998, in the experiment with HCT-116, with HL-60, in the experiment with HOP-92, in the experiment with LOX IMVI and in the experiment on M14 was > 100 µM (inactive) in each case. The GI50 in the experiment on MDA-MB-231, with Malme-3M, in the experiment with NCI-H226, in the experiment with NCI-H23, in the experiment on OVCAR-4 and with OVCAR-5 was > 100 µM (inactive) throughout. Further, the GI50 in the experiment on SF-268, in the experiment on SK-MEL-5, with SNB-19, in the experiment with SW-620, in the experiment with U-251 and in the experiment with UACC-257 was > 100 µM (inactive) each time.

As to `CCOC(=O)N(C)C1(c2ccccc2)CCN(CCCC(=O)c2ccc(F)cc2)CC1`, the GI50 was 21 µM (inactive) in the experiment with HCC 2998; 32.2 µM (inactive) in the experiment with HCT-116; 26.5 µM (inactive) with HL-60; 34.8 µM (inactive) with HOP-92; 20.9 µM (inactive) in the experiment with LOX IMVI; 17.2 µM (inactive) in the experiment with M14. Further, the GI50 was 39.4 µM (inactive) in the experiment on MDA-MB-231; 15.3 µM (inactive) with Malme-3M; 35.4 µM (inactive) with NCI-H226; 68.7 µM (inactive) in the experiment with NCI-H23; 40.2 µM (inactive) in the experiment with OVCAR-4; 49 µM (inactive) with OVCAR-5. For the same molecule, the GI50 in the experiment on SF-268 was 90.4 µM (inactive); in the experiment with SK-MEL-5, 17.3 µM (inactive); with SNB-19, 0.0647 µM (active); in the experiment on SW-620, 0.349 µM (active); with U-251, 61.4 µM (inactive); with UACC-257, 20.3 µM (inactive).

Consider `CCCCCCCCCCC/C=C(/C(=O)CCCO[Si](C)(C)C(C)(C)C)C(=O)OC`, for which the GI50 with HCC 2998, with HCT-116, with HL-60, in the experiment on HOP-92, with LOX IMVI and with M14 was > 100 µM (inactive) throughout. The GI50 in the experiment on MDA-MB-231, in the experiment with Malme-3M, in the experiment on NCI-H226, in the experiment with NCI-H23, with OVCAR-4 and in the experiment with OVCAR-5 was > 100 µM (inactive) in each case. Further, the GI50 in the experiment with SF-268, with SK-MEL-5, in the experiment with SNB-19, in the experiment on SW-620, with U-251 and in the experiment on UACC-257 was > 100 µM (inactive) throughout.

Regarding `C[C@]12CC[C@H](O)CC1=CC[C@@H]1[C@@H]2CC[C@]2(C)C(=O)[C@@H](N3CCOCC3)C[C@@H]12`, the GI50 is > 100 µM (inactive) in the experiment on HCC 2998; > 100 µM (inactive) with HCT-116; 47.1 µM (inactive) with HL-60; 50.5 µM (inactive) in the experiment on HOP-92; > 100 µM (inactive) in the experiment on LOX IMVI; 78.5 µM (inactive) with M14. The GI50 was > 100 µM (inactive) in the experiment with MDA-MB-231; > 100 µM (inactive) with Malme-3M; > 100 µM (inactive) in the experiment on NCI-H226; 57.8 µM (inactive) in the experiment on NCI-H23; > 100 µM (inactive) in the experiment with OVCAR-4; > 100 µM (inactive) with OVCAR-5. The GI50 with SF-268 is 48.4 µM (inactive); in the experiment on SK-MEL-5 it was 33.1 µM (inactive); in the experiment on SNB-19, > 100 µM (inactive); in the experiment with SW-620, > 100 µM (inactive); in the experiment with U-251, 89.3 µM (inactive); in the experiment on UACC-257, > 100 µM (inactive).

Regarding `O=C(OCc1ccccc1)C1(N2CN(C3(C(=O)OCc4ccccc4)CCCC3)CN(C3(C(=O)OCc4ccccc4)CCCC3)C2)CCCC1`, the GI50 in the experiment with HCC 2998, in the experiment with HCT-116, in the experiment on HL-60, in the experiment on HOP-92, with LOX IMVI and with M14 was > 10 µM (inactive) throughout. Besides, the GI50 in the experiment with MDA-MB-231, in the experiment on Malme-3M, in the experiment with NCI-H226, in the experiment on NCI-H23, in the experiment with OVCAR-4 and in the experiment on OVCAR-5 was > 10 µM (inactive) each time. The GI50 with SF-268, with SK-MEL-5, with SNB-19, with SW-620, in the experiment with U-251 and with UACC-257 was > 10 µM (inactive) each time.

As to `Cc1cn(C2OC(CO)C(O)C2F)c(=O)[nH]c1=O` (stereo unspecified), the GI50 was > 100 µM (inactive) in the experiment on HCC 2998; 73.3 µM (inactive) in the experiment with HCT-116; > 100 µM (inactive) with HL-60; > 100 µM (inactive) in the experiment on HOP-92; 24.1 µM (inactive) in the experiment on LOX IMVI; 41.8 µM (inactive) with M14. The GI50 with MDA-MB-231, with Malme-3M, in the experiment with NCI-H226, in the experiment on NCI-H23, in the experiment with OVCAR-4 and in the experiment with OVCAR-5 was > 100 µM (inactive) throughout. Also, the GI50 in the experiment with SF-268, with SK-MEL-5, in the experiment on SNB-19, with SW-620, in the experiment with U-251 and in the experiment on UACC-257 was > 100 µM (inactive) each time.

As to `CCOC(=O)NC(NC1=NCCS1)(C(=O)OCC)C(F)(F)F` (stereo unspecified), the GI50 with HCC 2998, with HCT-116, with HL-60, with HOP-92, in the experiment with LOX IMVI and with M14 was > 100 µM (inactive) in each case. Further, the GI50 in the experiment on MDA-MB-231, in the experiment with Malme-3M, with NCI-H226, with NCI-H23, with OVCAR-4 and in the experiment on OVCAR-5 was > 100 µM (inactive) in each case. For the same molecule, the GI50 with SF-268, in the experiment with SK-MEL-5, with SNB-19, with SW-620, in the experiment on U-251 and in the experiment on UACC-257 was > 100 µM (inactive) throughout.

Consider `O=[N+]([O-])C(=C(N1CCOCC1)N1CCOCC1)/C(Cl)=C(\Cl)Br`, for which the GI50 is > 100 µM (inactive) in the experiment on HCC 2998; 17.1 µM (inactive) with HCT-116; 3.86 µM (inactive) in the experiment on HL-60; 16.2 µM (inactive) in the experiment with HOP-92; 19.3 µM (inactive) in the experiment with LOX IMVI; 13.4 µM (inactive) in the experiment on M14. Also, the GI50 with MDA-MB-231 is 17.9 µM (inactive); in the experiment on Malme-3M, 16.1 µM (inactive); in the experiment on NCI-H226, 27.6 µM (inactive); with NCI-H23, 17.3 µM (inactive); in the experiment with OVCAR-4, 18.4 µM (inactive); with OVCAR-5 it was 17.1 µM (inactive). Further, the GI50 in the experiment with SF-268 was 23.6 µM (inactive); in the experiment on SNB-19 it was > 100 µM (inactive); with SW-620 it was 15.5 µM (inactive); in the experiment on U-251, 19 µM (inactive); with UACC-257, 17.3 µM (inactive).
